Read-outs that look alike come from different tables or passages of the source.
What was measured:
[1] = system: MP-1 mouse prostate epithelial cell line; assay: Cell cytotoxicity assay (CellTiter-Glo, ATP-luciferase); details: MP-1, 20 μM, 72 hours, compounds replenished daily
thrombin = thrombin (Bos taurus (Bovine), UniProt P00735); assay: Thrombin activity assay (chromogenic substrate); type: biochemical; details: for IC50: 30 minutes preincubation at room temperature, substrate at Km
Method: (§1) Titration of the chromogenic substrate pryoGlu-Pro-Arg-pNA was performed for each enzyme and the resulting substrate-velocity data fit with nonlinear regression using GraphPad Prism 4 software (GraphPad, La Jolla, Calif.) to calculate Vmax and Km. […] The reactions were then followed using a kinetic microplate reader and the linear rates of increase in absorbance at 405 nm expressed as percent activity (100%×vi/vo). At least three independent experiments were performed for each enzyme. The IC50 was calculated by fitting the data to a four-parameter non-linear regression using GraphPad Prism 4.

LNCaP cells = assay: Cell cytotoxicity assay (CellTiter-Glo, ATP-luciferase); details: 20 μM, 72 hours, compounds replenished daily
trypsin = trypsin (Sus scrofa (Pig), UniProt P00761); assay: Trypsin activity assay (chromogenic substrate); details: read-out: IC50 trypsin; 30 minutes preincubation at room temperature, substrate at Km
Chain of trypsin (P00761 9-231): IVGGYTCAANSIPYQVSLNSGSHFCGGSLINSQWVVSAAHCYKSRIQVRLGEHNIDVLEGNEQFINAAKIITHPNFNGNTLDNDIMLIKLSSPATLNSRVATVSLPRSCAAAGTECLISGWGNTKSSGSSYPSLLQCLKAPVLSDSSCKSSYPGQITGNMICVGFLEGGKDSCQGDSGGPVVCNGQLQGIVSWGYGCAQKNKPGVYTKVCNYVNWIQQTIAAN
Method: as §1

HepG2 cells = assay: Cell cytotoxicity assay (CellTiter-Glo, ATP-luciferase); details: HepG2, 20 μM, 72 hours, compounds replenished daily
recombinant human hepsin = recombinant human hepsin (Homo sapiens, UniProt P05981); assay: Hepsin activity assay (chromogenic substrate pyroGlu-Pro-Arg-pNA); type: biochemical
Chain of recombinant human hepsin (P05981 1-162 limits assumed): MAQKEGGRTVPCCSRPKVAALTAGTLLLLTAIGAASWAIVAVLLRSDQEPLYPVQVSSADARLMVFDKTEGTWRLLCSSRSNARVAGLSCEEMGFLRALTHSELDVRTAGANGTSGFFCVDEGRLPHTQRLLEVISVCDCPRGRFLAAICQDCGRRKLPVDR
Chain of recombinant human hepsin (P05981 163-417 limits assumed): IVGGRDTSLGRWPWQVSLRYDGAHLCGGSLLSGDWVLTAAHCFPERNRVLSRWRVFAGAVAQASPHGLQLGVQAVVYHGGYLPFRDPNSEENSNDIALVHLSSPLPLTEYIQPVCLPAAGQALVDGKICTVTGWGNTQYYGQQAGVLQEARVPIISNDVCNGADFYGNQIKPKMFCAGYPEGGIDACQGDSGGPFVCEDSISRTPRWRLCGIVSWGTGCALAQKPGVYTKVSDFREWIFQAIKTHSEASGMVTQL
Method: D. Hepsin, Trypsin and Thrombin Activity Assays.
Purified recombinant hepsin was preincubated with indicated compounds for 30 minutes at room temperature.

[2] = biological target: full-length wild-type murine hepsin expressed in HEK 293FT cells (Mus musculus (Mouse), UniProt O35453); assay: Hepsin-dependent pericellular serine proteolytic activity assay; type: cell-based; details: for attenuation of hepsin-dependent pericellular proteolytic activity: 50 μM, activity/expression level relative to vehicle; for attenuation of hepsin-dependent pericellular proteolytic activity / pericellular proteolytic activity (in words): overnight incubation; for pericellular proteolytic activity (in words): 20 and 50 μM
Chain of full-length wild-type murine hepsin expressed in HEK 293FT cells (O35453 other isoform, or with tags, fused parts or gaps): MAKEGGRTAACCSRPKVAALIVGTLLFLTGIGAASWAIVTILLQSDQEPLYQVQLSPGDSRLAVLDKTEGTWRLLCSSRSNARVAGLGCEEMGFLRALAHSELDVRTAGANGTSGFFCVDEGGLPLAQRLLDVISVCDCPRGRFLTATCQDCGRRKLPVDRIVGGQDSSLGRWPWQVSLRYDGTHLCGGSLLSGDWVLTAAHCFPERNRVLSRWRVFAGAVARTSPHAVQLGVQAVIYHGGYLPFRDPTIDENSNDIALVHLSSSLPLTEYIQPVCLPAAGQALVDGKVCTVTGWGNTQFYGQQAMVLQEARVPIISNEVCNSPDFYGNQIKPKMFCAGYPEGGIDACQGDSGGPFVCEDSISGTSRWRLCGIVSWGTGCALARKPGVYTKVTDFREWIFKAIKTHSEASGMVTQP
Method: Loading was verified via immunoblot against β-actin.
G. Pericellular Serine Proteolytic Activity Assay. […] After 3.5 hrs, transfection media was replaced with fresh media containing 20 μM or 50 μM of test compounds or solvent control (0.5% DMSO in media) and cells incubated overnight. Attached cell monolayers were then washed twice with PBS and once with assay buffer (5% CO2 equilibrated phenol-red free DMEM with 1% BSA) to remove residual serum proteases/inhibitors. Cells were then incubated in assay buffer containing 20 or 50 μM compounds for 30 minutes at 37° C. […] Percent inhibition was calculated as residual activity relative to solvent control. Matched samples were used in parallel to determine toxicity of the test compounds to HEK 293FT cells in this system using the CellTiter-Glo™ assay.
D. Inhibition of Hepsin-Dependent Pericellular Proteolytic Activity. To determine whether the identified compounds were able to inhibit cell-based hepsin activity, an assay was devised to measure hepsin-dependent pericellular serine proteolytic activity (FIG. 5A) (Raynaud et al., 1992 J Cell Physiol 151:378; Bauvois et al., 1990 Eur. J. Immunol. 20:459; Bauvois et al., 1992 Eur. J. Immunol. 22:923; Sameni et al., 2000 Neoplasia 2:496; McGowen et al., 2000 Canc. Res. 60:4771). […] Attached cell monolayers were incubated in assay buffer with peptide substrate and the reactions were allowed to proceed at 37° C. […] Activity levels were adjusted by altering hepsin expression levels to within the linear range of detection. A positive linear rate of activity was observed only for wild-type hepsin-expressing cells and was abolished in the presence of the broad spectrum serine protease inhibitor PEFAbloc.

hepsin = hepsin (Mus musculus (Mouse), UniProt O35453); assay: Immunoblot of hepsin expression levels in compound treated HEK 293FT cells; details: 20 and 50 μM, 24 hours
Method: The membrane was blocked overnight in TBST buffer containing: 5% non-fat milk, 2% normal goat serum in 50 mM Tris-HCl, pH 8.0, 100 mM NaCl, 0.1% Tween-20. The membrane was then incubated in 3% BSA in TBST with polyclonal anti-hepsin antibody (1:1000) for two hours at room temperature, washed 3×5 minutes with TBST and incubated for one hour in 0.1% BSA in TBST containing goat-anti-rabbit-HRP secondary antibody (1:2000), washed 3×5 minutes in TBST and developed with ECL (Pierce Chemicals, Rockford, Ill.). […] Expression levels were quantified by densitometry using ImageQuantTL™ (GE Healthcare Life Sciences, Piscataway, N.J.).
As treatment with chemical compounds may alter hepsin expression level (and thereby impact pericellular proteolytic activity), hepsin levels in drug-treated cells were determined via immunoblotting (FIG. 6B).

HEK 293FT cells = assay: Toxicity to HEK 293FT cells in the pericellular protease assay system (CellTiter-Glo); type: cell-based; details: 50 μM, 24-hour treatment
Method: The chromogenic serine protease substrate pyroglutamyl-L-prolyl-L-argininne-p-nitroaniline hydrochloride (pyrGlu-Pro-Arg-pNA) was then added to the media. […] (FIG. 5B) Toxicity of the candidate hepsin inhibitor compounds over the course of the pericellular protease assay was evaluated by 24-hour treatment of cells with 20 μM (white bars) or 50 μM (black bars) compounds, relative to vehicle control. […] Puromycin at 5 μg/mL was used as a positive control.
G. Pericellular Serine Proteolytic Activity Assay. […] After 3.5 hrs, transfection media was replaced with fresh media containing 20 μM or 50 μM of test compounds or solvent control (0.5% DMSO in media) and cells incubated overnight. […] Percent inhibition was calculated as residual activity relative to solvent control. […]
To determine the potential cytotoxicity of the previously identified hepsin inhibitors in this model system, HEK 293FT cells were incubated under identical conditions with 20 and 50 μM of the compounds and cytotoxicity was determined using the ATP-luciferase coupled assay as described above (FIG. 5B). […] The remaining compounds at 20 and 50 μM final concentration were incubated overnight with hepsin expressing cells and pericellular proteolytic activity was determined as described above (FIG. 6).

[3] = 30 minutes preincubation at room temperature, substrate at Km

Row | Compound | cellular toxicity (cell viability) [1] | activation of thrombin activity (thrombin; at 1 μM) | cellular toxicity (cell viability) (LNCaP cells) | IC50 (trypsin) [nM] | cellular toxicity (cell viability) (HepG2 cells) | IC50 (recombinant human hepsin; [3]) [nM] | IC50 (thrombin) [nM] | attenuation of hepsin-dependent pericellular proteolytic activity [2] | pericellular proteolytic activity (in words) [2] | hepsin expression levels (hepsin) | IC50 (recombinant human hepsin) [nM] | cytotoxicity to HEK 293FT cells (HEK 293FT cells) | pericellular proteolytic activity in the presence of inhibitor ([2]; wild-type hepsin-expressing cells, 30 minutes incubation)
1 | O=C1C=CC(=O)N1c1cccc([N+](=O)[O-])c1 [Compound 1, 1-(3-nitrophenyl)-1H-pyrrole-2,5-dione] | without affecting | approximately 3 fold | substantial toxicity | 3880 ± 850 | without affecting | 280 ± 70 |  |  |  |  |  |  | 
2 | Cc1ccc(OCc2nnc(NC(=O)Nc3cccc(Cl)c3)s2)cc1C [Compound 2, N-(3-chlorophenyl)-N′-{5-[(3,4-dimethylphenoxy)methyl]-1,3,4-thiadiazol-2-yl}urea] | without affecting |  | substantial toxicity | > 20000 | without affecting | 760 ± 260 | > 20000 |  |  |  |  |  | 
3 | O=C1NC(=O)N(c2cccc(Br)c2)C(=O)/C1=C/c1c[nH]c2ccccc12 [Compound 3] | limited or no cytotoxicity |  | limited or no cytotoxicity | 7630 ± 1510 | limited or no cytotoxicity | 1930 ± 390 | > 20000 | approximately 50% | attenuated pericellular proteolytic activity in a dose dependent manner | without substantially affecting hepsin expression levels |  |  | 
4 | Cc1cccc(C2Nc3cccc4cccc(c34)N2)c1 [Compound 4, 2-(3-methylphenyl)-2,3-dihydro-1H-perimidine] | limited or no cytotoxicity |  | limited or no cytotoxicity | 19600 ± 2700 | limited or no cytotoxicity | 350 ± 120 | > 20000 | approximately 60% | attenuated pericellular proteolytic activity in a dose dependent manner | without substantially affecting hepsin expression levels |  |  | 
5 | O=[N+]([O-])c1ccc(C2Nc3c(cccc3C(F)(F)F)C3C=CCC32)cc1 (centres unmarked) [Compound 5, 4-(4-nitrophenyl)-6-(trifluoromethyl)-3a,4,5,9b-tetrahydro-3H-cyclopenta[c]quinoline] | limited or no cytotoxicity |  | limited or no cytotoxicity | 31200 ± 2000 | limited or no cytotoxicity | 570 ± 190 | > 20000 | approximately 60% | attenuated pericellular proteolytic activity in a dose dependent manner | without substantially affecting hepsin expression levels |  |  | 
6 | O=[N+]([O-])c1cccc(C2Nc3ccc(Cl)cc3C3C=CCC32)c1 (centres unmarked) [Compound 6, 8-chloro-4-(3-nitrophenyl)-3a,4,5,9b-tetrahydro-3H-cyclopenta[c]quinoline] | limited or no cytotoxicity |  | limited or no cytotoxicity | 10200 ± 1500 | limited or no cytotoxicity | 980 ± 200 | > 20000 |  |  |  |  |  | 
7 | O=c1oc(-c2cccc(F)c2)nc2ccc(Cc3ccc4nc(-c5cccc(F)c5)oc(=O)c4c3)cc12 [Compound 7, 6,6′-methylenebis[2-(3-fluorophenyl)-4H-3,1-benzooxazin-4-one]] | limited or no cytotoxicity |  | limited or no cytotoxicity | 13100 ± 3000 | limited or no cytotoxicity | 2310 ± 530 | > 20000 |  |  |  |  |  | 
8 | O=C(Nc1ccc(Cl)c(Cl)c1)Nc1nnc(-c2ccc(Br)cc2)s1 [Compound 8, N-[5-(4-bromophenyl)-1,3,4-thiadiazol-2-yl]-N′-(3,4-dichlorophenyl)urea] | limited or no cytotoxicity |  | limited or no cytotoxicity | 1710 ± 210 | limited or no cytotoxicity | 720 ± 200 | > 20000 |  |  |  |  |  | 
9 | Cc1csc(-c2cc3ccc(OCc4c(F)c(F)c(F)c(F)c4F)cc3oc2=O)n1 [Compound 9, 3-(4-methyl-1,3-thiazol-2-yl)-7-[(pentafluorobenzyl)oxy]-2H-chromen-2-one] | limited or no cytotoxicity |  | limited or no cytotoxicity | 20900 ± 7500 | limited or no cytotoxicity | 980 ± 120 | > 20000 |  |  |  |  |  | 
10 | CC1(C)CC(=O)c2c(oc3c(Br)cc(NS(=O)(=O)c4ccccc4)cc23)C1 [Compound 10, N-(4-bromo-7,7-dimethyl-9-oxo-6,7,8,9-tetrahydrodibenzo[b,d]furan-2-yl)benzenesulfonamide] | limited or no cytotoxicity |  | limited or no cytotoxicity | 7720 ± 1100 | limited or no cytotoxicity | 930 ± 130 | > 20000 |  |  |  |  |  | 
11 | COc1cccc(OCCOc2cccc(/C=c3\sc4nc5ccccc5n4c3=O)c2)c1 [Compound 11, 2-{3-[2-(3-methoxyphenoxy)ethoxy]benzylidene}[1,3]thiazolo[3,2-a]benzimidazol-3(2H)-one] | limited or no cytotoxicity |  | limited or no cytotoxicity | 2000 ± 330 | limited or no cytotoxicity |  |  |  |  |  | 1310 ± 440 |  | 
12 | O=C(Nc1ccc(-c2nc3ccccc3o2)c(O)c1)c1ccc(-c2cccc([N+](=O)[O-])c2)o1 [Compound 12, N-[4-(1,3-benzoxazol-2-yl)-3-hydroxyphenyl]-5-(3-nitrophenyl)-2-furamide] | substantially toxic |  | substantially toxic | 3500 ± 670 | without affecting | 330 ± 70 | > 20000 |  |  |  |  | substantial toxicity | 
13 | O=C1c2c(O)cccc2Cc2cccc(O)c21 [Compound 15, 1,8-dihydroxyanthracen-9(10H)-one, reference compound] | toxic |  | toxic | 1260 ± 300 | toxic | 230 ± 50 | > 20000 |  |  |  |  | substantial toxicity | 
14 | Oc1nc2cc(Cl)c(Cl)cc2nc1O [Compound 16, 2,3-dihydroxy-6,7-dichloroquinoxaline] | limited or no cytotoxicity |  | limited or no cytotoxicity | 2420 ± 290 | limited or no cytotoxicity | 750 ± 90 | > 20000 |  |  |  |  |  | 
15 | Cl.NCCc1ccc(S(=O)(=O)F)cc1 [PEFAbloc, reference compound] |  |  |  |  |  |  |  |  |  |  |  |  | abolished

Reference: patent publication US9182402B2, “Hepsin inhibitors” (Fred Hutchinson Cancer Research Center, priority 2008, dated 2015)
